Measured values taken from patent US20230287044A1, “NOVEL ANTIBACTERIAL PEPTIDE AND USE THEREOF” (priority 2020, published 2023).
In brackets after ≈: the same amount, converted by molar mass. Square brackets hold non-standard residues; d marks the D form. Ends that are not written are not given here. Peptide text beside a SMILES is read from it. * marks the point of attachment. NH(β-GlcNAc) = CC(=O)N[C@@H]1[C@@H](O)[C@H](O)[C@@H](CO)O[C@H]1N*

What was measured:
[1] = test system: MRSA (S. aureus) KCCM 40510; format: cell-based, Staphylococcus aureus; settings: KCCM 40510, 18 h
Description: (§1) The minimum growth inhibitory concentrations of the antibacterial peptides of the present invention weremeasured, and the results are shown in Table 3 below.
(§2) Specifically, the strains were grown in CAMHB until the midlog phase, and then diluted with PBS buffer to 1× 10^6 cfu/ml to prepare the bacterial solution, and the antibacterial peptide prepared in Example 1above was diluted with CAMHB to 80 µM, 40 µM, 20 µM, 10 µM, 5 µM, 2.5 µM, 1.25 µM and 0.63 µM, and then the bacterial solution was treated with the same volume.
(§3) The results are the average value of three independent experiments.

[2] = test system: MRPA (P. aeruginosa) CCARM 2180; format: cell-based, Pseudomonas aeruginosa; settings: CCARM 2180, 18 h
Description: as §1, §2, §3

[3] = test system: MRAB (A. baumannii) ATCC BAA 1605; format: cell-based, Acinetobacter baumannii; settings: ATCC BAA 1605, 18 h
Description: as §1, §2, §3

[4] = test system: VRE (E. faecalis) ATCC 51575; format: cell-based, Enterococcus faecalis; settings: ATCC 51575, 18 h
Description: as §1, §2, §3

| MIC MRSA (S. aureus) KCCM 40510 [1] | MIC MRPA (P. aeruginosa) CCARM 2180 [2] | MIC MRAB (A. baumannii) ATCC BAA 1605 [3] | MIC VRE (E. faecalis) ATCC 51575 [4] | Molecule |
| --- | --- | --- | --- | --- |
| 1.25 µM (≈ 2.14 µg/mL) | 10 µM (≈ 17.1 µg/mL) | 2.5 µM (≈ 4.27 µg/mL) | 1.25 µM (≈ 2.14 µg/mL) | CC(=O)N[C@@H]1[C@@H](O)[C@H](O)[C@@H](CO)O[C@H]1NC(=O)C[C@H](NC(=O)[C@@H](CCCNC(=N)N)NC(=O)[C@@H](CCCNC(=N)N)NC(=O)[C@@H](CCCNC(=N)N)NC(=O)[C@@H](Cc1c[nH]c2ccccc12)NC(=O)[C@H](NC(=O)[C@H](NC(=O)[C@@H](Cc1c[nH]cn1)NC(=O)[C@H](NC(=O)[C@H](NC(=O)[C@H](N)Cc1c[nH]c2ccccc12)C(C)C)C(C)C)C(C)C)C(C)C)C(N)=O [KSH49, wvvhvvwrrrN] (H-[dW][dV][dV][dH][dV][dV][dW][dR][dR][dR]D(NH(β-GlcNAc))-NH2; N-terminus assumed) |
| 1.25 µM (≈ 1.8 µg/mL) | 10 µM (≈ 14.4 µg/mL) | 10 µM (≈ 14.4 µg/mL) | 1.25 µM (≈ 1.8 µg/mL) | CC(C)[C@@H](NC(=O)[C@@H](Cc1c[nH]c2ccccc12)NC(=O)[C@@H](CCCNC(=N)N)NC(=O)[C@@H](CCCNC(=N)N)NC(=O)[C@H](N)CCCNC(=N)N)C(=O)N[C@@H](C(=O)N[C@@H](C(=O)N[C@@H](C(=O)N[C@H](Cc1c[nH]c2ccccc12)C(=O)N[C@H](Cc1c[nH]c2ccccc12)C(N)=O)C(C)C)C(C)C)C(C)C [KSH85, rrrwvvvvww] (H-[dR][dR][dR][dW][dV][dV][dV][dV][dW][dW]-NH2; N-terminus assumed) |
| 2.5 µM | 20 µM | 2.5 µM | 2.5 µM | WVLWVWLRKKR-NH2 [LSH1] |
| 1.25 µM (≈ 1.69 µg/mL) | 10 µM (≈ 13.5 µg/mL) | 10 µM (≈ 13.5 µg/mL) | 1.25 µM (≈ 1.69 µg/mL) | CC(C)[C@@H](NC(=O)[C@@H](Cc1c[nH]c2ccccc12)NC(=O)[C@@H](CCCNC(=N)N)NC(=O)[C@@H](CCCNC(=N)N)NC(=O)[C@H](N)CCCNC(=N)N)C(=O)N[C@@H](C(=O)N[C@@H](C(=O)N[C@@H](C(=O)N[C@@H](C(=O)N[C@H](Cc1c[nH]c2ccccc12)C(N)=O)C(C)C)C(C)C)C(C)C)C(C)C [KSH86, rrrwvvvvvw] (H-[dR][dR][dR][dW][dV][dV][dV][dV][dV][dW]-NH2; N-terminus assumed) |
| 10 µM (≈ 13.7 µg/mL) | 10 µM (≈ 13.7 µg/mL) | 5 µM (≈ 6.86 µg/mL) | 10 µM (≈ 13.7 µg/mL) | CC(C)[C@@H](NC(=O)[C@@H](Cc1c[nH]cn1)NC(=O)[C@@H](CCCNC(=N)N)NC(=O)[C@@H](CCCNC(=N)N)NC(=O)[C@H](N)CCCNC(=N)N)C(=O)N[C@H](Cc1c[nH]cn1)C(=O)N[C@@H](C(=O)N[C@@H](C(=O)N[C@H](Cc1c[nH]c2ccccc12)C(=O)N[C@H](CCCCN)C(N)=O)C(C)C)C(C)C [KSH58, rrrhvhvvwk] (H-[dR][dR][dR][dH][dV][dH][dV][dV][dW][dK]-NH2; N-terminus assumed) |
| 1.25 µM (≈ 1.64 µg/mL) | 5 µM (≈ 6.57 µg/mL) | 1.25 µM (≈ 1.64 µg/mL) | 1.25 µM (≈ 1.64 µg/mL) | CC(C)[C@@H](NC(=O)[C@@H](Cc1c[nH]c2ccccc12)NC(=O)[C@@H](CCCNC(=N)N)NC(=O)[C@H](N)CCCNC(=N)N)C(=O)N[C@H](Cc1c[nH]c2ccccc12)C(=O)N[C@@H](C(=O)N[C@@H](C(=O)N[C@H](Cc1c[nH]c2ccccc12)C(=O)N[C@H](CCCCN)C(N)=O)C(C)C)C(C)C [KSH56, rrwvwvvwk] (H-[dR][dR][dW][dV][dW][dV][dV][dW][dK]-NH2; N-terminus assumed) |
| >10 µM | >10 µM | 1.25~2.5 µM | >10 µM | CC[C@@H](C)[C@@H](NC(=O)[C@@H](Cc1c[nH]c2ccccc12)NC(=O)[C@@H](C)NC(=O)[C@@H](C)NC(=O)[C@H](N)Cc1c[nH]c2ccccc12)C(=O)NCC(=O)N[C@H](CC(C)C)C(=O)N[C@H](CCCNC(=N)N)C(=O)N[C@H](CCCNC(=N)N)C(=O)N[C@H](CCCCN)C(=O)N[C@H](CCCCN)C(N)=O [KSH76, waawiglrrkk] (H-[dW][dA][dA][dW][dI]G[dL][dR][dR][dK][dK]-NH2; N-terminus assumed) |
| 2.5 µM (≈ 4.54 µg/mL) | 2.5 µM (≈ 4.54 µg/mL) | 0.63 µM (≈ 1.14 µg/mL) | 2.5 µM (≈ 4.54 µg/mL) | CC[C@@H](C)[C@@H](NC(=O)[C@@H](Cc1c[nH]c2ccccc12)NC(=O)[C@@H](CCCNC(=N)N)NC(=O)[C@@H](CCCNC(=N)N)NC(=O)[C@H](N)CCCNC(=N)N)C(=O)N[C@H](Cc1c[nH]c2ccccc12)C(=O)N[C@@H](C(=O)N[C@H](CC(C)C)C(=O)N[C@H](Cc1c[nH]c2ccccc12)C(=O)N[C@H](CCCCN)C(=O)N[C@@H](CC(=O)N[C@@H]1O[C@H](CO)[C@@H](O)[C@H](O)[C@H]1NC(C)=O)C(N)=O)C(C)C [KSH48, rrrwiwvlwkN] (H-[dR][dR][dR][dW][dI][dW][dV][dL][dW][dK]D(NH(β-GlcNAc))-NH2; N-terminus assumed) |
| 1.25 µM (≈ 1.8 µg/mL) | 2.5 µM (≈ 3.6 µg/mL) | 10 µM (≈ 14.4 µg/mL) | 1.25 µM (≈ 1.8 µg/mL) | CC(C)[C@@H](NC(=O)[C@@H](Cc1c[nH]c2ccccc12)NC(=O)[C@H](NC(=O)[C@H](NC(=O)[C@@H](Cc1c[nH]c2ccccc12)NC(=O)[C@@H](CCCNC(=N)N)NC(=O)[C@@H](CCCNC(=N)N)NC(=O)[C@H](N)CCCNC(=N)N)C(C)C)C(C)C)C(=O)N[C@@H](C(=O)N[C@H](Cc1c[nH]c2ccccc12)C(N)=O)C(C)C [KSH84, rrrwvvwvvw] (H-[dR][dR][dR][dW][dV][dV][dW][dV][dV][dW]-NH2; N-terminus assumed) |
| 10 µM | 40 µM | 5 µM | 10 µM | WLLWLYARKKR-NH2 [LSH9] |
| 1.25 µM (≈ 1.91 µg/mL) | 2.5 µM (≈ 3.82 µg/mL) | 10 µM (≈ 15.3 µg/mL) | 1.25 µM (≈ 1.91 µg/mL) | CC(C)[C@@H](NC(=O)[C@@H](Cc1c[nH]c2ccccc12)NC(=O)[C@@H](CCCNC(=N)N)NC(=O)[C@@H](CCCNC(=N)N)NC(=O)[C@H](N)CCCNC(=N)N)C(=O)N[C@H](Cc1c[nH]c2ccccc12)C(=O)N[C@H](Cc1c[nH]c2ccccc12)C(=O)N[C@@H](C(=O)N[C@@H](C(=O)N[C@H](Cc1c[nH]c2ccccc12)C(N)=O)C(C)C)C(C)C [KSH80, rrrwvwwvvw] (H-[dR][dR][dR][dW][dV][dW][dW][dV][dV][dW]-NH2; N-terminus assumed) |
| 0.63 µM (≈ 0.863 µg/mL) | 2.5 µM (≈ 3.42 µg/mL) | 0.63 µM (≈ 0.863 µg/mL) | 0.63 µM (≈ 0.863 µg/mL) | CC[C@@H](C)[C@@H](NC(=O)[C@@H](Cc1c[nH]c2ccccc12)NC(=O)[C@@H](CCCNC(=N)N)NC(=O)[C@H](N)CCCNC(=N)N)C(=O)N[C@H](Cc1c[nH]c2ccccc12)C(=O)N[C@@H](C(=O)N[C@H](CC(C)C)C(=O)N[C@H](Cc1c[nH]c2ccccc12)C(=O)N[C@H](CCCNC(=N)N)C(N)=O)C(C)C [KSH54, rrwiwvlwr] (H-[dR][dR][dW][dI][dW][dV][dL][dW][dR]-NH2; N-terminus assumed) |
| >10 µM | >10 µM | 2.5 µM (≈ 3.39 µg/mL) | >10 µM | CC[C@@H](C)[C@@H](NC(=O)[C@@H](Cc1c[nH]c2ccccc12)NC(=O)[C@@H](C)NC(=O)[C@@H](C)NC(=O)[C@H](N)Cc1c[nH]c2ccccc12)C(=O)NCC(=O)N[C@H](CC(C)C)C(=O)N[C@H](CCCNC(=N)N)C(=O)N[C@H](CCCCN)C(=O)N[C@H](CCCCN)C(=O)N[C@H](CCCCN)C(N)=O [KSH75, waawiglrkkk] (H-[dW][dA][dA][dW][dI]G[dL][dR][dK][dK][dK]-NH2; N-terminus assumed) |
| 20 µM | >40 µM | 5 µM | 20 µM | WVVWVVYRKKR-NH2 [LSH7] |
| 0.63 µM (≈ 0.863 µg/mL) | 2.5 µM (≈ 3.42 µg/mL) | 0.63 µM (≈ 0.863 µg/mL) | 0.63 µM (≈ 0.863 µg/mL) | CC[C@@H](C)[C@@H](NC(=O)[C@@H](Cc1c[nH]c2ccccc12)NC(=O)[C@@H](CCCNC(=N)N)NC(=O)[C@H](N)CCCNC(=N)N)C(=O)N[C@H](Cc1c[nH]c2ccccc12)C(=O)N[C@@H](C(=O)N[C@H](CC(C)C)C(=O)N[C@H](Cc1c[nH]c2ccccc12)C(=O)N[C@@H](CCCNC(=N)N)C(N)=O)C(C)C [KSH55, rrwiwvlwR] (H-[dR][dR][dW][dI][dW][dV][dL][dW]R-NH2; N-terminus assumed) |
